Measured values: patent US20100179153A1, “Bicyclic S1P Receptor Modulators” (priority 2007, published 2010)

How the values were obtained:
Format in all cases: biochemical
[1] = target: T1, human S1P1 receptor (Homo sapiens, UniProt P21453); test: 35S-GTPγS binding assay (SPA), S1P1; details: membrane protein from transfected CHO cells
T1 construct: expressed in transfected cells; host or cells: CHO-K1 (ATCC CCL 61); RH7777 may also be used
Method: (§1) Test 1: ^355-GTPγS Binding Assay
(§2) The S1P receptor modulating properties of an agent of the invention are tested on the human S1P1, S1P2, S1P3, S1P4 and S1P5, respectively, receptor subtypes. The functional receptor activation is assessed by quantifying the compound-induced ^35S-GTPγS binding to membrane protein prepared from transfected heterologous cells stably expressing the appropriate S1P receptor subtype. CHO cells (CHO-K1, Chinese hamster, ATCC no. CCL 61) are used [RH7777 cells (rat Morris hepatoma, ATCC no. CRL 1601) may also be used]. The membrane protein is prepared from wild-type cells and from different cell clones expressing the appropriate S1P receptor subtype. The assay technology used is SPA (scintillation proximity based assay). […] The luminescence of SPA beads triggered by membrane bound ^35S-GTPγS is quantified with a TOPcount plate reader (Packard). To evaluate the S1P receptor modulation, the stimulation (in %) compared to the baseline is calculated as the binding in the presence of the compound divided by the binding in the absence of a ligand, multiplied by 100. […] The selectivity of the compound towards the S1P receptor subtypes is determined by measuring for each of the different S1P receptor subtypes the level of ^35S-GTPγS binding in the presence of the compound using each of the different membrane proteins.

[2] = target: T2, human S1P4 receptor (Homo sapiens, UniProt O95977); test: 35S-GTPγS binding assay (SPA), S1P4; details: membrane protein from transfected CHO cells
T2 construct: expressed in transfected cells; host or cells: CHO-K1 (ATCC CCL 61); RH7777 may also be used
T2 sequence (O95977 1-384): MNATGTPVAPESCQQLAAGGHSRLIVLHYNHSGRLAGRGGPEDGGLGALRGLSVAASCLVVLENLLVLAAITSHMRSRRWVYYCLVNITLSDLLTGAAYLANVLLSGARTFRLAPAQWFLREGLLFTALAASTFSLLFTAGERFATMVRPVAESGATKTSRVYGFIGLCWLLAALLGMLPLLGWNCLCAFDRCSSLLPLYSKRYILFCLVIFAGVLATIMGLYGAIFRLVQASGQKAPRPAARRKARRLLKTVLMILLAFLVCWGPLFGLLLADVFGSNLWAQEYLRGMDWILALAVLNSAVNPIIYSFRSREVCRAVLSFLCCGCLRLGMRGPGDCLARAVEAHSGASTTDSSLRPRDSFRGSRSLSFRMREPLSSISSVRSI
Method: as §1, §2

[3] = target: T3, human S1P5 receptor (Homo sapiens, UniProt Q9H228); test: 35S-GTPγS binding assay (SPA), S1P5; details: membrane protein from transfected CHO cells; for EC50: read-out: EC50 for receptor subtype S1P5
T3 construct: expressed in transfected cells; host or cells: CHO-K1 (ATCC CCL 61); RH7777 may also be used
T3 sequence (Q9H228 whole entry): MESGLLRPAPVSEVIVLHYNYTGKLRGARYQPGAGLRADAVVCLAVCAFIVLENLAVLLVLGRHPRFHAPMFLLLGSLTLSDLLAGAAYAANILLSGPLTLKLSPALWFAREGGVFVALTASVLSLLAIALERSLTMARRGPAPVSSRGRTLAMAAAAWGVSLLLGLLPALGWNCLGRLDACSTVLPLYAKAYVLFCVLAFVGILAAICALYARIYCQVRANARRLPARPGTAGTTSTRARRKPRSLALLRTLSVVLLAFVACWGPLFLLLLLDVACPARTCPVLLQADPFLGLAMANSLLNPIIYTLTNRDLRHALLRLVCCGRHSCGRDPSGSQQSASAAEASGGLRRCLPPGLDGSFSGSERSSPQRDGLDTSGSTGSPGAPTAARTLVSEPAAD
Method: as §1
The S1P receptor modulating properties of an agent of the invention are tested on the human S1P1, S1P2, S1P3, S1P4 and S1P5, respectively, receptor subtypes. The functional receptor activation is assessed by quantifying the compound-induced ^35S-GTPγS binding to membrane protein prepared from transfected heterologous cells stably expressing the appropriate S1P receptor subtype. CHO cells (CHO-K1, Chinese hamster, ATCC no. CCL 61) are used [RH7777 cells (rat Morris hepatoma, ATCC no. CRL 1601) may also be used]. The membrane protein is prepared from wild-type cells and from different cell clones expressing the appropriate S1P receptor subtype. The assay technology used is SPA (scintillation proximity based assay). A DMSO solution of the test compound is serially diluted and added to SPA-bead (Amersham-Pharmacia) immobilised S1P receptor subtype expressing membrane protein (1 to 20 μg/well) in the presence of 50 mM HEPES, 100 mM NaCl, 10 mM MgCl2, 10 μM GDP, 0.1% fat free BSA and 0.2 nM ^35S-GTPγS (1200 Ci/mmol) (pH 7.4). After incubation in 96 well microtiter plates at room temperature for 120 minutes, the unbound ^35S-GTPγS is separated by centrifugation. The luminescence of SPA beads triggered by membrane bound ^35S-GTPγS is quantified with a TOPcount plate reader (Packard). To evaluate the S1P receptor modulation, the stimulation (in %) compared to the baseline is calculated as the binding in the presence of the compound divided by the binding in the absence of a ligand, multiplied by 100. Dose response curves are plotted using a non-linear regression curve fitting program, and the EC50 is defined as the concentration of the compound required to give 50% of its maximum stimulation. Preferably, the EC50 value of an agent of the invention in this test is 10′000 nM or less. The selectivity of the compound towards the S1P receptor subtypes is determined by measuring for each of the different S1P receptor subtypes the level of ^35S-GTPγS binding in the presence of the compound using each of the different membrane proteins.

T1 sequence (P21453 whole entry): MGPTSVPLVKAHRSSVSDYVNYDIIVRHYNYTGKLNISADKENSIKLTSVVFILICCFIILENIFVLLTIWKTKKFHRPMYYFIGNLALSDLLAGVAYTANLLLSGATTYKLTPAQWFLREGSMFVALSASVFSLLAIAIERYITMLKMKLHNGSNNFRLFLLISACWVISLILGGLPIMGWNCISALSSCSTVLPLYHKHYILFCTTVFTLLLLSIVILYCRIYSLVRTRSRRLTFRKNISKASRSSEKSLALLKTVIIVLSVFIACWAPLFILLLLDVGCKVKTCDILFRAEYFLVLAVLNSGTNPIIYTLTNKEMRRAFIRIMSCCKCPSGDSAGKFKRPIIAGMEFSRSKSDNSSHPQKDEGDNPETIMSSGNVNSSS

Row | Structure (SMILES) | efficacy at S1P1 [1] [%] | efficacy at S1P4 [2] [%] | EC50 ([2]; read-out: EC50 for receptor subtype S1P4) [µM] | efficacy at S1P5 [3] [%] | EC50 [3] [µM]
1 | Cc1cc(F)cc(C)c1Nc1cccc2c(C)n[nH]c(=O)c12 [Example 4, 8-(4-Fluoro-2,6-dimethyl-phenylamino)-4-methyl-2H-phthalazin-1-one] | 58 | 74 | 0.929 | 80 | 0.117
2 | CCc1cc(F)cc(CC)c1Nc1cccc2c(C)n[nH]c(=O)c12 [Example 8, 8-(2,6-Diethyl-4-fluoro-phenylamino)-4-methyl-2H-phthalazin-1-one] | 73 | – | – | 81 | 0.027
